Assay results: ChEMBL document CHEMBL1131734, “Synthesis of polyamine derivatives for the preparation of affinity chromatography columns for the search of new Trypanosoma cruzi targets” (Bioorg Med Chem Lett, 1999); call rule not given here

What was measured:
Trypanosoma cruzi [1] = assay: Inhibitory activity against Trypanosoma cruzi trypomastigotes; format: functional, organism-based
Trypanothione reductase = Trypanothione reductase (Trypanosoma cruzi, UniProt P28593); assay: Inhibitory activity against trypanothione reductase in Trypanosoma cruzi trypomastigotes; NA is not active
Trypanosoma cruzi [2] = assay: Inhibitory activity against Trypanosoma cruzi trypomastigotes at concentration 12.5 uM; format: functional

Trypanothione reductase, sequence (P28593 whole entry): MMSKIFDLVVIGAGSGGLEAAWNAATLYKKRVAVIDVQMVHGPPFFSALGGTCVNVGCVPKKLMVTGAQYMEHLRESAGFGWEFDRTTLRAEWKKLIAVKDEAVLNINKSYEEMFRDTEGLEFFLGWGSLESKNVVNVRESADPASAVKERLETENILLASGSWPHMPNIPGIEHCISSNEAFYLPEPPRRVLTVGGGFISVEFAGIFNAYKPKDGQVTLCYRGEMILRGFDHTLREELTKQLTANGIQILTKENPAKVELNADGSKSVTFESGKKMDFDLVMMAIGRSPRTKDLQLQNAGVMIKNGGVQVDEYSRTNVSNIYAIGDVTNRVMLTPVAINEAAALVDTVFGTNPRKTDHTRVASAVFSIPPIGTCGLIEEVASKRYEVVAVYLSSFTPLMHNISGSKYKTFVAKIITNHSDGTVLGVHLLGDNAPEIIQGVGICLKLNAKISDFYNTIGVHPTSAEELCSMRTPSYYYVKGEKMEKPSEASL

IC50 (Trypanosoma cruzi [1]) | IC50 (Trypanothione reductase) | Compound | inhibition at 12.5 µM (Trypanosoma cruzi [2])
5 µM | Not Active | NCCCCC(N)C(=O)NCC1CCC(CNCCCN2CCN(CCCNCC3CCC(CNC(=O)C(N)CCCCN)CC3)CC2)CC1 (centres undefined) | –
5 µM | Not Active | NCCCCC(N)C(=O)NCC1CCC(CNCCCN2CCN(CCCNCC3CCCCC3)CC2)CC1 (centres undefined) | –
5 µM | Not Active | NCCCN1CCN(CCCNCC2CCCCC2)CC1 | –
5 µM | Not Active | NCCCN1CCN(CCCN2C(=O)c3ccccc3C2=O)CC1 | –
5 µM | Not Active | C1CCC(CNCCCN2CCN(CCCNCC3CCCCC3)CC2)CC1 | 90%
5 µM | Not Active | CC(C)(C)OC(=O)NCCCCC(NC(=O)OC(C)(C)C)C(=O)NCC1CCC(CNCCCN2CCN(CCCNCC3CCC(CNC(=O)C(CCCCNC(=O)OC(C)(C)C)NC(=O)OC(C)(C)C)CC3)CC2)CC1 (centres undefined) | –
5 µM | Not Active | O=C1c2ccccc2C(=O)N1CCCN1CCN(CCCNCC2CCCCC2)CC1 | –
5 µM | Not Active | NCCCN1CCN(CCCN)CC1 | –
5 µM | Not Active | CC(C)(C)OC(=O)NCCCCC(NC(=O)OC(C)(C)C)C(=O)NCC1CCC(CNCCCN2CCN(CCCNCC3CCCCC3)CC2)CC1 (centres undefined) | –
